According to doi:10.1101/2020.01.23.916502v1 (biorxiv, 2020):

Tests used:
Experiment in all cases: NanoBRET tracer displacement in live HEK293T cells
Format in all cases: cell-based
JAK1 = JAK1 (Homo sapiens, UniProt P23458)
DDR1 = DDR1 (Homo sapiens, UniProt Q08345)
MAPK9 = MAPK9 (Homo sapiens, UniProt P45984)
PIK3CA = PIK3CA (Homo sapiens, UniProt P42336)
PNCK = PNCK (Homo sapiens, UniProt Q6P2M8)

Measured: IC50

Sequence of DDR1 (Q08345 19-913): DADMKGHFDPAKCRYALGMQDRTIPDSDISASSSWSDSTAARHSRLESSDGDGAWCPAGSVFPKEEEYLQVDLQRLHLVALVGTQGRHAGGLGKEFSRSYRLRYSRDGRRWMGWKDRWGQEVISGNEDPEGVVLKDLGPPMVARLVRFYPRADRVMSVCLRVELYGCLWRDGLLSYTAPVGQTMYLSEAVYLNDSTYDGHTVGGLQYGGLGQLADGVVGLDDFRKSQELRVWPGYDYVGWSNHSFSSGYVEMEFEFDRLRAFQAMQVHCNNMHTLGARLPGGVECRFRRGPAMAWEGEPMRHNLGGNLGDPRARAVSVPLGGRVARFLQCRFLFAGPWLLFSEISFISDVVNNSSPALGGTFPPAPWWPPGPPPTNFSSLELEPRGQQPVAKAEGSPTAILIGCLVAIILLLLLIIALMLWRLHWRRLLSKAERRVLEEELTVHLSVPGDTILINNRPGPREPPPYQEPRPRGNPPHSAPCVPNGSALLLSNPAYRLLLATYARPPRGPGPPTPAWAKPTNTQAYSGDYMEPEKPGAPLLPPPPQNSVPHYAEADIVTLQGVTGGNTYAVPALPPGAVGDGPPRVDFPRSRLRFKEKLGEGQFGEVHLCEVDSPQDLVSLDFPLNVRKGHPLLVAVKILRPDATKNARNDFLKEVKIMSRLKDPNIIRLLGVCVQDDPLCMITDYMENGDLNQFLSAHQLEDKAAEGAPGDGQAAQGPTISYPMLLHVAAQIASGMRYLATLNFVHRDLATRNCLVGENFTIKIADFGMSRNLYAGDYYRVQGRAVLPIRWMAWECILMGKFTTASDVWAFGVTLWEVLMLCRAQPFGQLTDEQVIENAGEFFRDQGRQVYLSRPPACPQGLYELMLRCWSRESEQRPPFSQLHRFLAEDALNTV
Sequence of MAPK9 (P45984 whole entry): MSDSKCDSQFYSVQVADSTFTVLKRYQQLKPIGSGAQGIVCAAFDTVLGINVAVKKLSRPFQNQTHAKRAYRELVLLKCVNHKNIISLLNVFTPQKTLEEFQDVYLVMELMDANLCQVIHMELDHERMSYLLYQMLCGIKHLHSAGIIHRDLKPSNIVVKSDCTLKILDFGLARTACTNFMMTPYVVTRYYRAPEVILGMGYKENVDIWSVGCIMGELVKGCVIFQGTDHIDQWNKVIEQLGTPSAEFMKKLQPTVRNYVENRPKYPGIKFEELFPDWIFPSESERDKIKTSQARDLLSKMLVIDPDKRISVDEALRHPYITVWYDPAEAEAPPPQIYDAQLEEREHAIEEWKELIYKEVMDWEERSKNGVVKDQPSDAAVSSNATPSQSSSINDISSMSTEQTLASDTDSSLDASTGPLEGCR
Sequence of PIK3CA (P42336 whole entry): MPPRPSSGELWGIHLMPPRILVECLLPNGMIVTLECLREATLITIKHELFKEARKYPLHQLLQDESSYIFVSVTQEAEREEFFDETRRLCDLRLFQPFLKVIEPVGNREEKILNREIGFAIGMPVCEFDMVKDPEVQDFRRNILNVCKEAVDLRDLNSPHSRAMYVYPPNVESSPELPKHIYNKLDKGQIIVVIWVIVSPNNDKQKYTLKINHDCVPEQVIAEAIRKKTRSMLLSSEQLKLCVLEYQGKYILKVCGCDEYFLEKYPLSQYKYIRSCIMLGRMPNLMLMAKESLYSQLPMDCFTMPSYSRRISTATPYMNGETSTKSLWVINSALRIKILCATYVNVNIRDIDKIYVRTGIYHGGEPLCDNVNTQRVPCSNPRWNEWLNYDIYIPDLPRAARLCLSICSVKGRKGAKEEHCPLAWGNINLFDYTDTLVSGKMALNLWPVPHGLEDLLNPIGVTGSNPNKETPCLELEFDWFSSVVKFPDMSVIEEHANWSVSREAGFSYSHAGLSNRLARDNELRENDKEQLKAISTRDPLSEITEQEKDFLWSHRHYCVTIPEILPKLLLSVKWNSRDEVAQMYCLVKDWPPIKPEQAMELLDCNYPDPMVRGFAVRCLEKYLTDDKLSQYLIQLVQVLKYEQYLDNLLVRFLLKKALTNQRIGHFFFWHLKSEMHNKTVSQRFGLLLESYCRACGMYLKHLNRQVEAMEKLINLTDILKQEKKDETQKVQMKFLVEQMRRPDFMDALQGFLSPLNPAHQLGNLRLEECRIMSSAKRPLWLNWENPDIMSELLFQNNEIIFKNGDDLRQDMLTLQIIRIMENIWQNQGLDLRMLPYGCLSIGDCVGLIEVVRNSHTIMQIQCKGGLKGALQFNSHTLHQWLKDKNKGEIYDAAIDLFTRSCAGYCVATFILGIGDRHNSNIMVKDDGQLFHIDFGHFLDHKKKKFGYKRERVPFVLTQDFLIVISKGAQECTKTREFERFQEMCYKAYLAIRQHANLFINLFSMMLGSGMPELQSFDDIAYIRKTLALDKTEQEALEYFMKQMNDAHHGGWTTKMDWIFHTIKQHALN
Sequence of PNCK (Q6P2M8 whole entry): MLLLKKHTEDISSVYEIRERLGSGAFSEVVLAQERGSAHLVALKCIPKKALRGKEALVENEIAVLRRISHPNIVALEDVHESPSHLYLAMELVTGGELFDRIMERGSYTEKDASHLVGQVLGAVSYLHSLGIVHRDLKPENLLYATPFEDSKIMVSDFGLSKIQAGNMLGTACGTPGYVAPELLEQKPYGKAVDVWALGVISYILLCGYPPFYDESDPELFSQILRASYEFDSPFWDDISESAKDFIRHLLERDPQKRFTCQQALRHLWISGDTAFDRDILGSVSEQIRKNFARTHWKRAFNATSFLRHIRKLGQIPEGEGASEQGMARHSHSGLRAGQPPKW
Sequence of JAK1 (P23458 whole entry): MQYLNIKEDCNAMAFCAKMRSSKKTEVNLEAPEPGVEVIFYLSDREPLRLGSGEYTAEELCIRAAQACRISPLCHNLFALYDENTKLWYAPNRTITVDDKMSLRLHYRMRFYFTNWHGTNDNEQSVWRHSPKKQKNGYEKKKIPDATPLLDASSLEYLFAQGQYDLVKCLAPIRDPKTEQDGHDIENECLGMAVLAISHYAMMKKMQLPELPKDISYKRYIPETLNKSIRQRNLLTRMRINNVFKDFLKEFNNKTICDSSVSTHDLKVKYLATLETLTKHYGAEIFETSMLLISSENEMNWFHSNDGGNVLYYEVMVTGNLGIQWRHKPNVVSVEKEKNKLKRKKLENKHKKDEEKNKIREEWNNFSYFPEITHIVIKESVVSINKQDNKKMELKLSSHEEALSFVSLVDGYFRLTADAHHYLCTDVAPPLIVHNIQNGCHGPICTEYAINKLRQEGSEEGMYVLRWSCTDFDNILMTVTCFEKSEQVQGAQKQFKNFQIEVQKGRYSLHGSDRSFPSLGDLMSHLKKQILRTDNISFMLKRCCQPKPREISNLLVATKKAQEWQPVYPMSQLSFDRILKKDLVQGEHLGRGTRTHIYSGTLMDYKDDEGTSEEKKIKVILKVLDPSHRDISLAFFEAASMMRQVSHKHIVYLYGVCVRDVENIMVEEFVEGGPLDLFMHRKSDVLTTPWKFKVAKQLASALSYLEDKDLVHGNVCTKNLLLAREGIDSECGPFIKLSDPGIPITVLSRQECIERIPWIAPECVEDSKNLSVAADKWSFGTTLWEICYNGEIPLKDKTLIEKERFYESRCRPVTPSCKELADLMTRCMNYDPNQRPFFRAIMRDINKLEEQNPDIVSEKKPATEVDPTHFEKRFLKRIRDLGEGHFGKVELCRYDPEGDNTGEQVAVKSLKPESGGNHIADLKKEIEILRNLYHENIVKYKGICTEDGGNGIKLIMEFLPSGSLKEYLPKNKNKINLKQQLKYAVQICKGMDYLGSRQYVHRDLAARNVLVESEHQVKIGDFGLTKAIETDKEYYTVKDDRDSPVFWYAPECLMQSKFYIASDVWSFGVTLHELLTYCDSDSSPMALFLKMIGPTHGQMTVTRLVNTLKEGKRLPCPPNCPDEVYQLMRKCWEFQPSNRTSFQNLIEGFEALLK

Cc1cnc(-c2cc(Cl)ccc2F)cc1-n1c(=O)n(CC(N)=O)c2ccccc21 [compound 15, THAI11]
> 20 µM: all assays above

Cc1ccc2c(c1)n(CC(N)=O)c(=O)n2-c1cc(-c2cc(Cl)ccc2F)ncc1C [compound 16, THAI14]
> 20 µM: all assays above
